Data published in US20080269251A1, “Substituted Pyrazinone Derivatives as Alpha2C-Adrenoreceptor Antagonists” (priority 2005, published 2008).

Legend:
5HT-transporter = target: T1, 5HT-transporter (Homo sapiens, UniProt P31645); assay: Binding experiment for the 5HT-transporter ([3H]paroxetine, human platelet membranes); conditions: [3H]paroxetine 0.5 nM, 60 min at 25° C., read-out: h-5HTT pIC50 (converted)
T1 construct: Human platelet membranes (Oceanix Biosciences Corporation, Hanover, Md., USA) were thawed; tissue Oceanix Biosciences Corporation, Hanover, Md., USA; host or cells: human platelet membranes
In short: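 Competition binding of [3H]paroxetine to human platelet membranes in Tris-HCl 50 mM with 120 mM NaCl and 5 mM KCl; bound radioligand separated by GF/B filtration and counted.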

[1] = target: T2, human adrenergic-α2A receptor (Homo sapiens, UniProt P08913); assay: Radioligand binding experiment for hα2A-adrenergic receptor ([3H]raulwolscine); conditions: [3H]raulwolscine 1 nM, 60 minutes at 25° C.; read-out: h-α2A pIC50 (converted)
T2 construct: expressed in transfected cells; host or cells: CHO cells, stably transfected; membrane preparation
T2 sequence (P08913 1-465): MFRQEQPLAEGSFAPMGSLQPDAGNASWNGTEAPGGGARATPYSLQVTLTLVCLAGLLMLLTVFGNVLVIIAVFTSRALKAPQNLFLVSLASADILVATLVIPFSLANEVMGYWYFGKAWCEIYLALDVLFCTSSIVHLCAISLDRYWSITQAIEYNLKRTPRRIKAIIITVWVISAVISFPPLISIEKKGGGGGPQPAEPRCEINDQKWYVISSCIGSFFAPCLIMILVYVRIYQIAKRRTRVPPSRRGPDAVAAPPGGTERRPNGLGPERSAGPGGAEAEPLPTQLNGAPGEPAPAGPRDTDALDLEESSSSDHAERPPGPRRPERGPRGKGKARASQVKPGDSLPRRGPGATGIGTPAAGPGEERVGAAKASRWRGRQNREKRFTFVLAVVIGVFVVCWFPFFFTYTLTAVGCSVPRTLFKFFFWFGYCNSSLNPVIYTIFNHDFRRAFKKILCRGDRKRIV
In short: (§1)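 CHO membranes expressing human α2A or α2C receptors were incubated with 1 nM [^3H]raulwolscine for 60 min at 25° C in glycylglycine 25 mM, pH 8.0, then filtered. Nonspecific binding was defined with 1 μM oxymetazoline for α2A and 1 μM spiroxatrine for α2C. pIC50 came from sigmoidal competition curves.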

[2] = target: T3, human adrenergic-α2C receptor (Homo sapiens, UniProt P18825); assay: Radioligand binding experiment for hα2C-adrenoceptor ([3H]raulwolscine); conditions: [3H]raulwolscine 1 nM, 60 minutes at 25° C.; read-out: h-α2C pIC50 (converted)
T3 construct: expressed in transfected cells; host or cells: CHO cells, stably transfected; membrane preparation
T3 sequence (P18825 1-462): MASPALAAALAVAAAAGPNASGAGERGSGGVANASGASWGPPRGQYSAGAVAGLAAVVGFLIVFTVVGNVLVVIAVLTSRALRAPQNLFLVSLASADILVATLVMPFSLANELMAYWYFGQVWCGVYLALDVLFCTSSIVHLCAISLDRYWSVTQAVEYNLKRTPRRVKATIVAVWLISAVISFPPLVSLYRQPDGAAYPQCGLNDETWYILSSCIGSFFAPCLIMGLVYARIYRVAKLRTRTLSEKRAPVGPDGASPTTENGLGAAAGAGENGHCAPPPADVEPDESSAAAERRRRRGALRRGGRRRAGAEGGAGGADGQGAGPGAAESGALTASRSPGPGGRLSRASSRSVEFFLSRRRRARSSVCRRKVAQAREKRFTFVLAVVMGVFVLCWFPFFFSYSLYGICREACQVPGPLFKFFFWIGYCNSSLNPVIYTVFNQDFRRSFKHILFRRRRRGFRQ
In short: as §1

T1 sequence (P31645 whole entry): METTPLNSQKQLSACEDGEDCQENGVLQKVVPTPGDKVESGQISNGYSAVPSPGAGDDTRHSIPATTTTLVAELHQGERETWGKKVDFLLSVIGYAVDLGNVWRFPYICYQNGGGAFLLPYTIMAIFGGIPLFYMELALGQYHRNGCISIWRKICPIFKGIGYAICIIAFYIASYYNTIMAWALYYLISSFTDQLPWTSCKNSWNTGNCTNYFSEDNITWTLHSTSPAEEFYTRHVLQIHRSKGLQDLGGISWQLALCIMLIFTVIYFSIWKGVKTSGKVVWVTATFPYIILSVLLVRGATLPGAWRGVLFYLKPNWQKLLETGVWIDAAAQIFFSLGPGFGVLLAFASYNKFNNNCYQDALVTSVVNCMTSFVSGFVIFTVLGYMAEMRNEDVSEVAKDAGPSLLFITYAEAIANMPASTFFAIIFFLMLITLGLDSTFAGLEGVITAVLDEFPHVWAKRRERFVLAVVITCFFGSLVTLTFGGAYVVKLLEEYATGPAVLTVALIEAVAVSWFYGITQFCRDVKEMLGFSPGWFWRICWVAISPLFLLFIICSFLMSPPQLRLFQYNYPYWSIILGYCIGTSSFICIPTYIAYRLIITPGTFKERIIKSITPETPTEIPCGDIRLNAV

SMILES	IC50 (5HT-transporter) [nM]	melting point [°C]	IC50 [1] [nM]	IC50 [2] [nM]
CCCCNc1cccc(-n2ccnc(NC3CCN(Cc4ccc5ccccc5c4)CC3)c2=O)c1 [1-05]	20	117.5	39.8	15.8
CCCNC(=O)c1ccc(-n2ccnc(NC3CCN(Cc4ccc5ccccc5c4)CC3)c2=O)cc1 [1-09]	20	210.1	200	39.8
CCCC(=O)NCc1ccc(-n2ccnc(NC3CCN(Cc4ccc5ccccc5c4)CC3)c2=O)cc1F [1-26]	7.94	95	398	7.94
O=c1c(NC2CCN(Cc3ccc4ccccc4c3)CC2)nccn1-c1ccc(NCC2CCCO2)cc1 (stereo not drawn) [1-78]	15.8	> 300	200	10
O=c1c(NC2CCN(Cc3ccc4ccccc4c3)CC2)nccn1-c1ccc(CNCC2CCCO2)cc1 (stereo not drawn) [1-79a]	3.16	> 300	158	5.01
O=C(NCCN1CCCCC1)c1ccc(-n2ccnc(NC3CCN(Cc4ccc5ccccc5c4)CC3)c2=O)cc1 [1-88]	3.16	172.3	79.4	25.1
O=C(NCCN1CCOCC1)c1ccc(-n2ccnc(NC3CCN(Cc4ccc5ccccc5c4)CC3)c2=O)cc1 [1-91]	15.8	271	316	63.1
O=c1c(NC2CCN(Cc3ccc4ccccc4c3)CC2)nccn1-c1ccc(NCCN2CCOCC2)cc1 [1-92]	12.6	195.3	316	15.8
O=C(CCN1CCOCC1)Nc1ccc(-n2ccnc(NC3CCN(Cc4ccc5ccccc5c4)CC3)c2=O)cc1 [1-97]	15.8	183.4	316	12.6
C=CCSc1ncccc1C(=O)NCc1ccc(-n2ccnc(NC3CCN(Cc4ccc5ccccc5c4)CC3)c2=O)cc1 [1-102]	15.8	117.7	316	63.1
O=C(c1ccc(-n2ccnc(NC3CCN(Cc4ccc5ccccc5c4)CC3)c2=O)cc1)N1CCOCC1 [2-08]	63.1	271.4	100	25.1
O=c1c(NC2CCN(Cc3ccc4ccccc4c3)CC2)nccn1CCN1CCCCC1 [2-10]	158	161.2	200	25.1
O=C1c2ccccc2C(=O)N1C/C=C/Cn1ccnc(NC2CCN(Cc3ccc4ccccc4c3)CC2)c1=O [2-18]	3.98	172.8	79.4	3.98
O=C1c2ccccc2C(=O)N1CCCn1ccnc(NC2CCN(Cc3ccc4ccccc4c3)CC2)c1=O [2-19]	12.6	76.5	126	3.98
O=C1c2ccccc2C(=O)N1CC#CCn1ccnc(NC2CCN(Cc3ccc4ccccc4c3)CC2)c1=O [2-20]	15.8	96.3	398	7.94
COC(=O)c1ccc(-n2ccnc(NC3CCN(Cc4ccc5ccccc5c4)CC3)c2=O)cc1 [3-05]	39.8	196.5	100	79.4
O=c1c(NC2CCN(Cc3ccc4ccccc4c3)CC2)nccn1-c1ccc(COCCN2CCOCC2)cc1 [3-13]	5.01	153.9	200	3.98
O=c1c(NC2CCN(Cc3ccc4ccccc4c3)CC2)nccn1-c1ccsc1 [6-05]	39.8	152.8	126	39.8
O=c1c(NC2CCN(Cc3ccc4ccccc4c3)CC2)nccn1-c1cccnc1 [6-06]	100	> 300	398	50.1
O=c1c(NC2CCN(Cc3ccc4ccccc4c3)CC2)nccn1-c1ccncc1 [6-07]	100	125.1	200	63.1
O=c1c(NC2CCN(Cc3ccc4ccccc4c3)CC2)nccn1-c1ccc2c(c1)CN(Cc1ncc[nH]1)CC2 [6-14]	15.8	134.7	79.4	6.31
